Legend:
[1] = Experimental Example 4: comparison of hygroscopicity by weight gain over time (40 to 46% RH); format: physicochemical; details: 24° C.
Protocol: The L-Ala-OEt HCl salt, L-Ala-OEt MsOH salt, L-Ala-OEt BsOH salt, L-Ala-OEt 4-CBS salt, L-Ala-OEt 4-EBS salt, L-Ala-OEt 2,4-DMBS salt, and L-Ala-OEt 2,5-DMBS salt were measured in an amount of about 0.3 g each, left standing in a thermostatic chamber at a temperature of 24° C. and a humidity of 40 to 46% RH, and the hygroscopicity was compared based on the weight gain with the lapse of time. A part of the crystal of the L-Ala-OEt HCl salt was liquefied in 30 minutes, and the liquefied portion increased thereafter with the lapse of time. After 100 minutes, the whole mass became like a sherbet.

[2] = Experimental Example 5: comparison of hygroscopicity by weight gain over time (60 to 66% RH); format: physicochemical; details: 24 EC
Protocol: The L-Ala-OMe HCl salt, L-Ala-OEt MsOH salt, L-Ala-OEt BsOH salt, L-Ala-OEt 4-CBS salt, L-Ala-OEt 4-EBS salt, L-Ala-OEt 2,4-DMBS salt, and L-Ala-OEt 2,5-DMBS salt were measured in an amount of about 0.3 g each, left standing in a thermostatic chamber at a temperature of 24 EC and a humidity of 60 to 66% RH, and the hygroscopicity was compared based on the weight gain with the lapse of time.

Row | Compound | weight increase rate (%) ([1]; 0 minutes) | weight increase rate (%) ([1]; 15 minutes) | weight increase rate (%) ([1]; 30 minutes) | weight increase rate (%) ([1]; 45 minutes) | weight increase rate (%) ([1]; 60 minutes) | weight increase rate (%) ([1]; 75 minutes) | weight increase rate (%) ([1]; 90 minutes) | weight increase rate (%) ([1]; 120 minutes) | weight increase rate (%) ([1]; 150 minutes) | weight increase rate (%) ([1]; 180 minutes) | weight increase rate (%) ([2]; 0 minutes) | weight increase rate (%) ([2]; 10 minutes) | weight increase rate (%) ([2]; 20 minutes) | weight increase rate (%) ([2]; 35 minutes) | weight increase rate (%) ([2]; 50 minutes) | weight increase rate (%) ([2]; 65 minutes) | weight increase rate (%) ([2]; 80 minutes) | weight increase rate (%) ([2]; 95 minutes) | weight increase rate (%) ([2]; 110 minutes) | weight increase rate (%) ([2]; 125 minutes) | other results
1 | L-alanine ethyl ester 2,5-dimethylbenzenesulfonate [L-Ala-OEt 2,5-DMBS salt] | 0.00% | 0.00% | 0.00% | 0.06% | 0.10% | 0.16% | 0.19% | 0.26% | 0.32% | 0.32% | 0.00% | 0.00% | 0.03% | 0.03% | 0.09% | 0.06% | 0.06% | 0.06% | 0.12% | 0.06% | weight increase rate (%) ([2]; 140 minutes): 0.09%; weight increase rate (%) ([2]; 155 minutes): 0.09%; weight increase rate (%) ([2]; 170 minutes): 0.09%; weight increase rate (%) ([2]; 185 minutes): 0.09%; weight increase rate (%) ([2]; 200 minutes): 0.12%
2 | CCOC(=O)[C@H](C)N.O=S(=O)(O)c1ccc(Cl)cc1 [L-Ala-OEt 4-CBS salt, L-alanine ethyl ester 4-chlorobenzenesulfonate] | 0.00% | 1.55% | 1.51% | 1.48% | 1.81% | 2.01% | 2.14% | 2.30% | 2.17% | 2.27% | 0.00% | 2.26% | 2.83% | 3.38% | 3.77% | 4.10% | 4.31% | 4.46% | 4.58% | 4.70% | weight increase rate (%) ([2]; 140 minutes): 4.76%; weight increase rate (%) ([2]; 155 minutes): 4.82%; weight increase rate (%) ([2]; 170 minutes): 4.94%; weight increase rate (%) ([2]; 185 minutes): 4.94%; weight increase rate (%) ([2]; 200 minutes): 5.03%
3 | L-alanine ethyl ester 2,4-dimethylbenzenesulfonate [L-Ala-OEt 2,4-DMBS salt] | 0.00% | 0.00% | 0.00% | 0.00% | 0.03% | 0.03% | 0.06% | 0.06% | 0.06% | 0.06% | 0.00% | 0.00% | 0.00% | 0.00% | 0.00% | 0.00% | 0.03% | 0.00% | 0.03% | 0.03% | weight increase rate (%) ([2]; 140 minutes): 0.03%; weight increase rate (%) ([2]; 155 minutes): 0.03%; weight increase rate (%) ([2]; 170 minutes): 0.06%; weight increase rate (%) ([2]; 185 minutes): 0.06%; weight increase rate (%) ([2]; 200 minutes): 0.06%
4 | CCOC(=O)[C@H](C)N.O=S(=O)(O)c1ccccc1 [L-Ala-OEt BsOH salt, L-alanine ethyl ester benzenesulfonate] | 0.00% | 0.66% | 0.63% | 0.75% | 0.93% | 1.05% | 1.08% | 1.23% | 1.02% | 1.08% | 0.00% | 1.46% | 1.80% | 1.97% | 2.11% | 2.22% | 2.25% | 2.28% | 2.22% | 2.22% | weight increase rate (%) ([2]; 140 minutes): 2.22%; weight increase rate (%) ([2]; 155 minutes): 2.22%; weight increase rate (%) ([2]; 170 minutes): 2.28%; weight increase rate (%) ([2]; 185 minutes): 2.25%; weight increase rate (%) ([2]; 200 minutes): 2.25%
5 | L-alanine ethyl ester 4-ethylbenzenesulfonate [L-Ala-OEt 4-EBS salt] | 0.00% | 0.00% | 0.00% | 0.00% | 0.13% | 0.19% | 0.22% | 0.41% | 0.54% | 0.36% | 0.00% | 0.09% | 0.09% | 0.15% | 0.15% | 0.15% | 0.15% | 0.15% | 0.18% | 0.15% | weight increase rate (%) ([2]; 140 minutes): 0.18%; weight increase rate (%) ([2]; 155 minutes): 0.18%; weight increase rate (%) ([2]; 170 minutes): 0.18%; weight increase rate (%) ([2]; 185 minutes): 0.15%; weight increase rate (%) ([2]; 200 minutes): 0.21%
